How the values were obtained:
Type in all cases: in vivo
[1] = test system: kidney bean sclerotinia rot fungi (Sclerotinia sclerotiorum); experiment: kidney bean sclerotinia rot test; details: 200 ppm foliar spray; kidney bean cv NAGAUZURA SAITO; observed after four days
Procedure: Each of plastic pots was filled with soil and thereto Kidney bean (cv; NAGAUZURA SAITO) seeds were sown and the kidney beans were grown in a greenhouse for 8 days. Thereafter, any of the present compounds 1-1, 1-2, 1-3, 1-5, 1-10, 3-16, 3-22, 4-2, 4-3, 4-4, 4-8, or 6-2, each of which was made to a formulation according to the similar method to that of Formulation Example 6, was mixed with water so as to be a prescribed concentration (500 ppm). The adjusted solutions were sprayed to foliar parts so as to adhere adequately on the leaves of the above-mentioned kidney bean. After spraying the mixtures, the kidney beans were air-dried and a PDA medium containing hyphae of kidney bean sclerotinia rot fungi (Sclerotinia sclerotiorum) was placed on the leaves of the kidney bean. After the inoculation, all kidney beans were placed under a high humidity during only night and after four days, a lesion area was observed.
Each of plastic pots was filled with soil and thereto Kidney bean (cv; NAGAUZURA SAITO) seeds were sown and the kidney beans were grown in a greenhouse for 8 days. […] The adjusted solutions were sprayed to foliar parts so as to adhere adequately on the leaves of the above-mentioned kidney bean. […]

[2] = test system: soybean frogeye leaf spot disease fungi (Cercospora sojina); experiment: soybean frogeye leaf spot test, spraying after inoculation; details: 200 ppm foliar spray 5 days after inoculation; soybean cv TACHINAGAHA
[3] = test system: kidney bean sclerotinia rot fungi (Sclerotinia sclerotiorum); experiment: kidney bean sclerotinia rot test, plants placed outside for 6 days before inoculation; details: 200 ppm foliar spray, observed after six days
Excerpt: Each of plastic pots was filled with soil and kidney bean (cultivar: NAGAUZURA SAITO) was sown and grown in a greenhouse for 8 days. Then, the comparative test compound cf5, the present compound E-1, E-3, E-11, or E-16, each of which was made to a formulation according to the similar method to that of Formulation Example 6, was mixed with water so as to be 200 ppm. The mixtures were sprayed to foliar parts so as to adhere adequately on the leaves of the above-mentioned kidney bean. After spraying the mixtures, the kidney beans were air-dried, and placed outside for 6 days. Thereafter, a PDA medium containing hyphae of kidney bean sclerotinia rot fungi (Sclerotinia sclerotiorum) was placed on the leaves of the kidney bean. After the inoculation, all kidney beans were placed indoors under a high humidity during only night and after six days, a lesion area was observed.

[4] = test system: soybean frogeye leaf spot disease fungi (Cercospora sojina); experiment: soybean frogeye leaf spot test, spraying before inoculation; details: 3.1 ppm foliar spray, inoculation after 2 days; soybean cv Tachinagaha
[5] = test system: wheat leaf blotch fungi (Septoria tritici); experiment: wheat leaf blotch test on 45-day wheat, plants placed outside for 4 days before inoculation; details: 300 ppm, 200 L/ha, Formulation Example 4, wheat cv APOGEE grown 45 days
Excerpt: Each of plastic pots was filled with soil and wheat (cultivar: APOGEE) was sown, and the […] grown in a greenhouse for 45 days. Then, the comparative test compound cf3, the present compound E-15, or E-16, each of which was made to a formulation according to the similar method to that of Formulation Example 4, was mixed with water so as to be 300 ppm. The mixtures were sprayed to foliar parts of the wheat by the volume of 200 L/ha. After spraying the mixtures, the […], and placed outside for 4 days. Thereafter, an aqueous suspension of the spores of wheat leaf blotch fungi (Septoria tritici) was spraying-inoculated.

With `CCC(=NN=C(C)c1ccc2ccccc2c1)OCc1c(C)cccc1-n1nnn(C)c1=O` [cf1] the “lesion area compared to the lesion area in an untreated kidney bean” value [1] was no less than 50% and the “lesion area compared to the lesion area in an untreated soybean” value [2] was no less than 50%.
With `CCC(=NN=C(C)c1ccccc1)OCc1c(C)cccc1-n1nnn(C)c1=O` [cf5] the “lesion area compared to the lesion area in an untreated kidney bean” value [3] was no less than 70% and the “area of lesion compared to that on an untreated bean” value [4] was “more than 70%”.
With `CCC(=NN=C(C)c1ccc(F)cc1)OCc1c(C)cccc1-n1nnn(C)c1=O` [cf3] the “lesion area compared to the lesion area in an untreated wheat” value [5] was no less than 80%.

From US11225470B2, “Tetrazolinone compounds and its use as pest control agents” (SUMITOMO CHEMICAL COMPANY, LIMITED, priority 2016, dated 2022)
